Where two headings read alike, the source gives them in different places. No end group written: not given here.
Assays:
human αv-integrins = conditions: cited from earlier work
breast tumor [1] = test: Competition of phage tumor homing by coinjection of free peptide; format: in vivo, mice; conditions: for effect of coinjected free peptide on homing of CDCRGDCFC phage: coinjection with CDCRGDCFC (RGD) phage; for effect of co-injected peptide on accumulation of NGR phage in breast carcinoma xenografts: phage expressing CNGRCVSGCAGRC, NGRAHA or CVLNGRMEC
Source text: Selective homing can be distinguished from nonspecific binding, however, by detecting differences in the abilities of different individual phage to home to a tumor. For example, selective homing can be identified by combining a putative tumor homing molecule such as a peptide expressed on a phage with a large excess of non-infective phage or with about a five-fold excess of phage expressing unselected peptides, injecting the mixture into a subject and collecting a sample of the tumor. […] In addition, nonspecific localization can be distinguished from selective homing by performing competition experiments using, for example, phage expressing a putative tumor homing peptide in combination with an excess amount of the “free” peptide (Example IV).
The various peptides, including RGD- and NGR-containing peptides, generally were bound to the tumor blood vessels. The minimal cyclic NGR peptide, CNGRC (SEQ ID NO: 8), was synthesized based on the CNGRCVSGCAGRC (SEQ ID NO: 3) sequence. When the CNGRC (SEQ ID NO: 8) peptide was co-injected with phage expressing either CNGRCVSGCAGRC (SEQ ID NO: 3), NGRAHA (SEQ ID NO: 6) or CVLNGRMEC (SEQ ID NO: 7), accumulation of the phage in the breast carcinoma xenografts was inhibited. […] (SEQ ID NO: 1) peptide, even when administered in amounts up to ten times higher than those that inhibited the homing of the NGR phage. In comparison, the […]

[2] = tested on: MDA-MB-435 breast carcinoma; test: Tumor therapy of breast tumor bearing mice with doxorubicin/peptide conjugates; format: in vivo, BALB/c nu/nu mice; conditions: for effect on tumor growth: relative to treatment with the vehicle, alone; for gross examination of tumors (skin ulceration, tumor necrosis): 5 μg doxorubicin equivalent
Experimental: Female 2-month old BALB/c nu/nu mice (Harlan Sprague Dawley; San Diego Calif.) were used for these studies and were cared for according to the Burnham Institute animal facility guidelines. MDA-MB-435 breast carcinoma cells (Price et al., Cancer Res. 50:717-721 (1993)) were injected in the mammary fat pad of the nude mice and tumor growth was monitored (Pasqualini et al., supra, 1997). Tumors were allowed to grow to a size of about 1 cm^3 (about 5% of the mouse's body weight) before starting the treatment experiments, except for the toxicity experiments as discussed below.
Weekly doxorubicin/peptide conjugate or control treatments (5 μg/mouse/week of doxorubicin-equivalent) were administered intravenously. In some experiments, as indicated, a dose of 30 μg/mouse was administered every 3 weeks. Treatment with doxorubicin, alone, is referred to as “dox control” and treatment with doxorubicin conjugated to the non-tumor homing control peptide, […] As an additional control, in some experiments the tumor homing peptide was mixed with doxorubicin, without linking, and the mixture was administered to tumor bearing mice. Such treatment produced results that were not statistically different from those obtained with the above described dox controls.
Mice were anesthetized with a tribromoethanol-based anesthetic mixture (AVERTIN; Papaioannou and Fox, Lab. Anim. 43:189-192 (1993)) before each treatment. Anesthetization facilitated the tail vein injections (final volume, 200 μl) and allowed precise serial three dimensional tumor size measurements. Tumor volume calculations were based on the equation for the volume of an ovaloid: V= 4/3 (Πabc), where a, b, and c are ½ of the measured diameters in each of the three dimensions.

[3] = Acute toxicity in mice bearing extremely large tumors
[4] = tested on: MDA-MB-435 human breast carcinoma cells; format: cell-based; conditions: for cell killing: agents not removed after 30 min, 24 hr
Experimental: MDA-MB-435 human breast carcinoma cells were plated at 1×10^5 cells/well in 96 well plates. Cells were incubated with increasing amounts of doxorubicin, the doxorubicin/[…] (SEQ ID NO: 1) conjugate, or the doxorubicin/GACVFSIAHECGA (SEQ ID NO: 19; control) conjugate (0.1 to 10 μg/well of doxorubicin-equivalent) for either 30 min or overnight. […] The number of surviving cells was determined at 24hours with crystal violet staining (see Koivunen et al., supra, 1994).

B16B15b mouse melanoma = test: In vivo panning against a melanoma tumor; design: species or system mice; conditions: 89 cloned phage recovered from B16B15b tumors after three rounds
Experimental: Tumors were transplanted into mice as described in Examples II and III, below. A mixture of phage libraries containing 1×10^9 to 1×10^14 TU was diluted in 200 μl DMEM and injected into the tail vein of anesthetized mice (AVERTIN (0.015 ml/g); see U.S. Pat. No. 5,622,699; Pasqualini and Ruoslahti, supra, 1996). After 1-4 minutes, mice were snap frozen in liquid nitrogen. To recover the phage, carcasses were partially thawed at room temperature for 1 hr, tumors and control orqans were collected and weighed, then were ground in 1 ml DMEM-PI (DMEM containing protease inhibitors (PI); phenylmethylsulfonyl fluoride (PMSF; 1 mM), aprotinin (20 μg/ml), leupeptin (1 μg/ml)).
Individual colonies containing phage recovered from a tumor were grown for 16 hr in 5 ml NZY/tet. The bacterial cultures obtained from the individual colonies were pooled and the phage were purified and re-injected into mice as described above for a second round of in vivo panning. In general, a third round of panning also was performed. Phage DNA was purified from individual bacterial colonies obtained from the final round of in vivo panning and the DNA sequences encoding the peptides expressed by selected phage were determined (see Koivunen et al., supra, 1994b).
Mice bearing a melanoma were produced by implantation of B16B15b mouse melanoma cells, which produce highly vascularized tumors. […]

breast tumor [5] = test: Viability of tumor cells obtained from tumors of treated mice; format: in vivo; conditions: 30 μg equivalent iv, tumors removed after five days, cells counted 24 hours and 7 days after plating
Experimental: In addition, the viability of tumor cells obtained from tumors of mice treated with a tumor homing peptide/doxorubicin conjugate was compared to that of tumors from mice treated with free doxorubicin. In these experiments, breast tumor bearing mice were size matched with regard to the tumors, then treated intravenously with 30 μg equivalent of doxorubicin/CDCRGDCFC (SEQ ID NO: 1) or of free doxorubicin. Five days after treatment, the mice were euthanized and the tumors were removed. The tumor pairs were weighed and ground and the cell suspensions were plated (2 g tumor tissue per 150 mm plate).
Cell numbers were determined at 24 hours and 7 days after plating. Viability of tumor cells from the tumors of mice receiving the doxorubicin/CDCRGDCFC (SEQ ID NO: 1) conjugate was about 3 fold less than cells from tumors of mice treated with the free doxorubicin.

[6] = tested on: Human 435 breast carcinoma tumor; test: In vivo targeting of phage expressing a peptide to a tumor (phage quantitated in organs); design: species or system mice; conditions: mouse melanoma, human Kaposi's sarcoma xenograft
Experimental: Human 435 breast carcinoma cells were inoculated into the mammary fat pad of nude mice. When the tumors attained a diameter of about 1 cm, phage expressing a specific RGD-containing peptide were administered to the tumor bearing mouse. Similar results
1×10^9 phage expressing the RGD-containing peptide, […] (SEQ ID NO: 1; see, Koivunen et al., supra, 1995) or control (insertless) phage were injected intravenously (iv) into the mice and allowed to circulate for 4 min. The mice then were snap frozen or perfused through the heart while under anesthesia, and various organs, including tumor, brain and kidney, were removed and the phage present in the organs was quantitated (see U.S. Pat. No. 5,622,699; Pasqualini and Ruoslahti, supra, 1996).
Approximately 2-3 times more phage expressing the […] (SEQ ID NO: 1) peptide were detected in the breast tumor as compared to brain and kidney, indicating the […] […] In a parallel study, unselected phage, which express various, diverse peptides, were injected into tumor-bearing mice and various organs were examined for the presence of phage. Far more phage were present in kidney and, to a lesser extent, brain, as compared to the tumor. Thus, the 80-fold more RGD-expressing phage than unselected phage concentrated in the tumor.

[7] = 5 μg/mouse/week doxorubicin-equivalent iv
[8] = 30 min exposure, 0.1 to 10 μg/well doxorubicin-equivalent, survivors counted at 24 hours
[9] = 200 μg/mouse, tumors about 25% of body weight
[10] = 5 μg/mouse/week iv, t test, p<0.0001

CDCRGDCFC
binding to human αv-integrins (human αv-integrins): binds to human αv-integrins | effect of coinjected free peptide on homing of CDCRGDCFC phage (breast tumor [1]): greatly reduced tumor homing of the RGD phage | amount needed to inhibit homing of NGR phage relative to CNGRC peptide (breast tumor [1]; higher than that of the CNGRC peptide): 5 to 10 fold | effect of co-injected peptide on accumulation of NGR phage in breast carcinoma xenografts (breast tumor [1]): partially inhibited

GRGESP [reference compound]
effect of coinjected free peptide on amount of RGD phage in the tumor (breast tumor [1]; 500 μg free peptide coinjected with phage expressing […]): essentially had no effect

doxorubicin/CNGRC (cysteine pairing not given here; also: doxorubicin conjugate)
survival [2, 7]: marked effect on survival | tumor size compared with control groups [2, 7]: significantly smaller | effect on tumor growth [2]: almost completely suppressed tumor growth | toxicity relative to free doxorubicin ([3]; mouse, in vivo): less toxic than free doxorubicin

doxorubicin/GACVFSIAHECGA: doxorubicin conjugated to the non-tumor homing control peptide GACVFSIAHECGA (SEQ ID NO: 19) (cysteine pairing not given here; also: doxorubicin conjugate) [reference compound]
gross examination of tumors (skin ulceration, tumor necrosis) [2]: no such signs were observed | results as compared to dox control groups [2, 7]: not significantly different | effect on tumor growth [2]: essentially no effect on tumor growth | cell death [4]: cell death was present only in the cultures treated with the doxorubicin/[…] | cell killing [4]: the cells were killed by all of the treatments

COc1cccc2c1C(=O)c1c(O)c3c(c(O)c1C2=O)C[C@@](O)(C(=O)CO)C[C@@H]3O[C@H]1C[C@H](N)[C@H](O)[C@H](C)O1 [doxorubicin, reference compound]
gross examination of tumors (skin ulceration, tumor necrosis) [2]: no such signs were observed | effect on tumor growth [2]: essentially no effect on tumor growth | cell death [4, 8]: cell death was present only in the cultures treated with the doxorubicin/[…] | cell killing [4]: the cells were killed by all of the treatments | time to death after treatment [3, 9]: ≤ 48 h

CNGRC
effect of coinjected free peptide on homing of CDCRGDCFC phage (breast tumor [1]): did not inhibit | effect of co-injected peptide on accumulation of NGR phage in breast carcinoma xenografts (breast tumor [1]): inhibited

WGTGLC
share of the clones sequenced (B16B15b mouse melanoma): 25%

doxorubicin/CDCRGDCFC: doxorubicin coupled by EDC/NHS to the tumor homing peptide CDCRGDCFC (SEQ ID NO: 1) (cysteine pairing not given here; also: doxorubicin conjugate via EDC/NHS, site not given here)
gross examination of tumors (skin ulceration, tumor necrosis) [2]: marked skin ulceration and tumor necrosis | survival [2, 7]: survived beyond the time when the dox control and conjugate control mice had died | tumor size compared with control groups [2, 7]: significantly smaller tumors | pulmonary metastasis vs dox control [2, 10]: a lower incidence of pulmonary metastasis and fewer metastatic lesions | spread to regional lymph nodes vs dox control [2, 10]: less spread to regional lymph nodes | histopathological analysis of tumor vasculature ([2]; compared to the dox control group): pronounced destruction of the vasculature in the tumors | time remaining alive after dox control and conjugate control mice had died ([2]; dose escalation, 30 μg/mouse every three weeks for three cycles): more than 6 months | cell death [4, 8]: cell death was present | cell killing [4]: the cells were killed by all of the treatments | survival after treatment [3, 9]: survived for longer than one week | viability of tumor cells, fold less than after free doxorubicin (breast tumor [5]): about 3 fold

CGSLVRC
effect of coadministered free peptide on homing of CGSLVRC phage (breast tumor [1]; mouse, in vivo): inhibited

ACDCRGDCFCG
effect of coinjected free peptide on amount of RGD phage in the tumor (breast tumor [1]; 500 μg free peptide coinjected with phage expressing CDCRGDCFC): reduced the amount of phage in the tumor by about tenfold

CLSGSLSC
share of the clones sequenced (B16B15b mouse melanoma): 52% | tumor homing of phage/peptide [6]: also homed to a breast tumor and to Kaposi's sarcoma

CNGRCVSGCAGRC
tumor homing of phage/peptide [6]: also homed in vivo to a melanoma and to a Kaposi's sarcoma, but not to nontumor tissues
